This is an account of results in patent publication US4254123A, “Novel imidazoquinoxalines” (Roussel Uclaf, priority 1978, dated 1981).

For this assay, the system named is Passive cutaneous anaphylaxis. Nature of the assay: Passive cutaneous anaphylaxis (PCA) in rats. Type of assay: in vivo. As to conditions: dosed immediately prior to i.v. antigen/Evans blue challenge, blueing scored after 30 minutes; for ED50: Rattus norvegicus, 0.5 h. The procedure: Cutaneous anaphylaxis can be induced in rats by intradermal (ID) sensitization with antiserum followed three days later by systemic challenge with antigen. Evans blue dye injected with the antigen is used as a marker to assess the severity of the local response. Anti-allergic drugs inhibit this reaction. […] Brown: Pergamon Press:-male rats weighing 180-220 grams are used in groups of seven.
1. Wash 120 grams of Al(OH)3 gel in 140 ml of saline (use of a macerater facilitates mixing).
2. Centrifuge at 3,000 r.p.m. for about 10 minutes.
3. Resuspend the precipitate with 300 ml of albumen egg powder (1.3 mg/ml) in saline and allow to stand for 30 minutes.
4. Centrifuge at 3,000 r.p.m. for 10 minutes.
5. Weigh the wet precipitate and to each gram weight add 1 ml of saline. Store in refrigerator (Quantity sufficient for 60 rats for a 3 day sensitization program).
1 ml of the alum precipitated ovalbumen was injected subcutaneously into rats weighing 180-200 grams on days 0,2,4. The rats were bled on day 14 either by cardiac puncture of via the dorsal abdominal aorta. Equal quantities of serum from each animal were pooled and thoroughly mixed and 2 ml aliquots were stored at -20° C. in plastic tubes.
(A) SENSITIZATION: The rats were anaesthetized with Nembutal (40-60 mg/kg i.p.) and were then sensitized by four ID injections (0.1 ml each) on their shaved backs. The animals were then left for a period of three days to develop sensitization.
The injections were speeded up by using an automatic 1 ml self-filling glass syringe. The "challenged" rats were killed after 30 minutes, (usually pithed) and their skin on the dorsal surface was removed. The degree and area of blueing, proportional to the anaphylactic reaction was assessed on a four point scoring system.
1. Total scores for sites 1,2,3 and 4=X
2. Mean value of X for each group=X
3. X t=X for test group; X c=X for control group [formula]

[1] abbreviates: intravenous, read-out: ED 50 (dose of drug giving 50% inhibition), intravenously.

Where two headings read alike, the source gives them in different places.

In the case of “7- and 8-chloro-imidazo-[1,2-a]-quinoxaline-2-carboxylic acid [Example 4]”, the “ED 50 (dose of drug giving 50% inhibition), intravenously” value (intravenous) turned out to be 0.12 mg/kg. For the setting “oral”, the “ED 50 (dose of drug giving 50% inhibition), orally” value was found to be 0.71 mg/kg.

As to `O=C(O)c1cn2c(cnc3ccccc32)n1` [Example 1, Imidazo-[1,2-a]-quinoxaline-2-carboxylic acid], the ED50 by setting is: under setting [1], 0.073 mg/kg; (oral, read-out: ED 50 (dose of drug giving 50% inhibition), orally) 0.73 mg/kg.

As for `O=C(O)c1cn2c(cnc3cc(Cl)c(Cl)cc32)n1` [Example 3, 7,8-dichloro-imidazo-[1,2-a]-quinoxaline-2-carboxylic acid], the ED50 under setting [1] is 0.2 mg/kg.

Consider `CCOc1nc2ccccc2n2cc(C(=O)O)nc12` [Example 5, 4-ethoxy-imidazo-[1,2-a]-quinoxaline-2-carboxylic acid], for which, under setting [1], the ED50 is 0.83 mg/kg.

On to `NC(=O)c1nc2ccccc2n2cc(C(=O)O)nc12` [Example 6, 4-carbamoyl-imidazo-[1,2-a]-quinoxaline-2-carboxylic acid], for which, under setting [1], the ED50 is 3.13 mg/kg.
